Measurements reported in ChEMBL document CHEMBL1201862, “PubChem BioAssay data set” (2004).
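1) Cells in 96-well plates. 2) Compound, 48 h, 5 concentrations. 3) Linear interpolation between surrounding doses. 4) Unreached endpoint = highest concentration. The concentration for 50% growth inhibition is given as GI50.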 Active and inactive are the calls of the source. No stated cut-off is given here; in the data, active = GI50 up to about 1.1 µM and inactive = higher.

Legend:
Test in all cases: inhibition of tumour cell growth, NCI panel, 48 h
[1] = tested on: 786-0
[2] = tested on: A549
[3] = tested on: ACHN
[4] = tested on: CCRF-CEM
[5] = tested on: HCT-116
[6] = tested on: HOP-62
[7] = tested on: Hs-578T
[8] = tested on: K562
[9] = tested on: MDA-MB-435
[10] = tested on: MDA-N
[11] = tested on: Malme-3M
[12] = tested on: OVCAR-3
[13] = tested on: PC-3
[14] = tested on: RPMI-8226
[15] = tested on: SF-539
[16] = tested on: SK-MEL-2
[17] = tested on: SK-MEL-5
[18] = tested on: SN12C
[19] = tested on: TK-10
[20] = tested on: U-251

| Compound | GI50 [1] | GI50 [2] | GI50 [3] | GI50 [4] | GI50 [5] | GI50 [6] | GI50 [7] | GI50 [8] | GI50 [9] | GI50 [10] | GI50 [11] | GI50 [12] | GI50 [13] | GI50 [14] | GI50 [15] | GI50 [16] | GI50 [17] | GI50 [18] | GI50 [19] | GI50 [20] |
| --- | --- | --- | --- | --- | --- | --- | --- | --- | --- | --- | --- | --- | --- | --- | --- | --- | --- | --- | --- | --- |
| CCOC(=O)C1=C(C)C(C(=O)OC)/C(=C/c2cccc3cccnc23)C1=O (centres undefined) | > 10 µM (inactive) | > 10 µM (inactive) | > 10 µM (inactive) | > 10 µM (inactive) | > 10 µM (inactive) | > 10 µM (inactive) | > 10 µM (inactive) | > 10 µM (inactive) | > 10 µM (inactive) | > 10 µM (inactive) | > 10 µM (inactive) | > 10 µM (inactive) | > 10 µM (inactive) | > 10 µM (inactive) | > 10 µM (inactive) | > 10 µM (inactive) | > 10 µM (inactive) | > 10 µM (inactive) | > 10 µM (inactive) | > 10 µM (inactive) |
| Oc1ccc(CNCc2ccccc2)c2cccnc12 | 0.383 µM (active) | 0.0875 µM (active) | 0.182 µM (active) | 0.0436 µM (active) | 0.0594 µM (active) | 0.0853 µM (active) | 0.243 µM (active) | 0.138 µM (active) | 0.0841 µM (active) | 0.0762 µM (active) | 0.321 µM (active) | 0.217 µM (active) | 0.336 µM (active) | 0.156 µM (active) | 0.34 µM (active) | 0.264 µM (active) | 0.191 µM (active) | 0.0601 µM (active) | 0.282 µM (active) | 0.0384 µM (active) |
| Cc1nc2c(o1)C(=O)c1ccccc1/C2=N\c1ccccc1 | 8.38 µM (inactive) | – | 3.18 µM (inactive) | 4.04 µM (inactive) | 2.17 µM (inactive) | 2.45 µM (inactive) | 1.62 µM (inactive) | 2.62 µM (inactive) | 0.352 µM (active) | 0.292 µM (active) | 1.36 µM (inactive) | 1.59 µM (inactive) | 2.03 µM (inactive) | 1.97 µM (inactive) | 2.9 µM (inactive) | 1.46 µM (inactive) | 1.35 µM (inactive) | 2.04 µM (inactive) | 20.7 µM (inactive) | 1.76 µM (inactive) |
| Cc1nc(N)nc(N)c1N1CCN(Cc2ccccc2)CC1 | 4.73 µM (inactive) | 3.56 µM (inactive) | 12.6 µM (inactive) | 16.5 µM (inactive) | 4.71 µM (inactive) | 42.4 µM (inactive) | 48 µM (inactive) | 6.44 µM (inactive) | 11.4 µM (inactive) | 21.9 µM (inactive) | 14.2 µM (inactive) | 47.8 µM (inactive) | 7.48 µM (inactive) | > 39 µM (inactive) | 27.2 µM (inactive) | 64.6 µM (inactive) | > 37.8 µM (inactive) | 56.1 µM (inactive) | 66.1 µM (inactive) | 48.8 µM (inactive) |
| CC1=NOC2(C1)/C(=N/O)CCC/C2=N\O (centres undefined) | > 100 µM (inactive) | > 100 µM (inactive) | > 100 µM (inactive) | > 100 µM (inactive) | > 100 µM (inactive) | > 100 µM (inactive) | > 100 µM (inactive) | > 100 µM (inactive) | > 100 µM (inactive) | > 100 µM (inactive) | > 100 µM (inactive) | > 100 µM (inactive) | > 100 µM (inactive) | > 100 µM (inactive) | > 100 µM (inactive) | > 100 µM (inactive) | > 100 µM (inactive) | > 100 µM (inactive) | > 100 µM (inactive) | > 100 µM (inactive) |
| CC[C@@]1(O)C(=O)OCc2c1cc1n(c2=O)Cc2c-1nc1ccccc1c2Cl | < 0.01 µM (active) | < 0.01 µM (active) | < 0.01 µM (active) | < 0.01 µM (active) | 0.0168 µM (active) | < 0.01 µM (active) | 4.52 µM (inactive) | 0.0329 µM (active) | 0.0984 µM (active) | 0.069 µM (active) | 0.239 µM (active) | 0.296 µM (active) | < 0.0214 µM (active) | < 0.0151 µM (active) | < 0.01 µM (active) | 0.396 µM (active) | < 0.0141 µM (active) | < 0.01 µM (active) | 6.21 µM (inactive) | < 0.01 µM (active) |
| COC(=O)[C@@H]1C[C@]2(CC=C(C)C)c3ccccc3N(S(=O)(=O)c3ccccc3)[C@@H]2N1C(=O)OC | 25.1 µM (inactive) | 11.6 µM (inactive) | 25.5 µM (inactive) | 27.9 µM (inactive) | 20 µM (inactive) | 26.8 µM (inactive) | 10.6 µM (inactive) | 9.55 µM (inactive) | 10.4 µM (inactive) | 26.9 µM (inactive) | 32.5 µM (inactive) | 19.4 µM (inactive) | 17 µM (inactive) | 6.67 µM (inactive) | 24.8 µM (inactive) | 5.96 µM (inactive) | 11.6 µM (inactive) | 40.6 µM (inactive) | 32 µM (inactive) | 13.3 µM (inactive) |
